These results are taken from ChEMBL document CHEMBL1158598, “5-ureidobenzofuranone indoles as potent and efficacious inhibitors of PI3 kinase-alpha and mTOR for the treatment of breast cancer” (Bioorg Med Chem Lett, 2010).

Values after ≈ are worked out from the molar mass of the structure shown. Active and inactive are the calls of the source. The rule behind the calls is not given here. Where only a bound is given, the exact number is not on record here.

The subject of series [1] is MDA-MB-361. Nature of the series: Cytotoxicity against human MDA-MB-361 cells. It counts as functional, cell-based.
The target of series [2] is Phosphatidylinositol 4,5-bisphosphate 3-kinase catalytic subunit alpha isoform (Homo sapiens, UniProt P42336). Nature of the series: Inhibition of PI3Kalpha.
Chain of Phosphatidylinositol 4,5-bisphosphate 3-kinase catalytic subunit alpha isoform (P42336 whole entry, canonical isoform): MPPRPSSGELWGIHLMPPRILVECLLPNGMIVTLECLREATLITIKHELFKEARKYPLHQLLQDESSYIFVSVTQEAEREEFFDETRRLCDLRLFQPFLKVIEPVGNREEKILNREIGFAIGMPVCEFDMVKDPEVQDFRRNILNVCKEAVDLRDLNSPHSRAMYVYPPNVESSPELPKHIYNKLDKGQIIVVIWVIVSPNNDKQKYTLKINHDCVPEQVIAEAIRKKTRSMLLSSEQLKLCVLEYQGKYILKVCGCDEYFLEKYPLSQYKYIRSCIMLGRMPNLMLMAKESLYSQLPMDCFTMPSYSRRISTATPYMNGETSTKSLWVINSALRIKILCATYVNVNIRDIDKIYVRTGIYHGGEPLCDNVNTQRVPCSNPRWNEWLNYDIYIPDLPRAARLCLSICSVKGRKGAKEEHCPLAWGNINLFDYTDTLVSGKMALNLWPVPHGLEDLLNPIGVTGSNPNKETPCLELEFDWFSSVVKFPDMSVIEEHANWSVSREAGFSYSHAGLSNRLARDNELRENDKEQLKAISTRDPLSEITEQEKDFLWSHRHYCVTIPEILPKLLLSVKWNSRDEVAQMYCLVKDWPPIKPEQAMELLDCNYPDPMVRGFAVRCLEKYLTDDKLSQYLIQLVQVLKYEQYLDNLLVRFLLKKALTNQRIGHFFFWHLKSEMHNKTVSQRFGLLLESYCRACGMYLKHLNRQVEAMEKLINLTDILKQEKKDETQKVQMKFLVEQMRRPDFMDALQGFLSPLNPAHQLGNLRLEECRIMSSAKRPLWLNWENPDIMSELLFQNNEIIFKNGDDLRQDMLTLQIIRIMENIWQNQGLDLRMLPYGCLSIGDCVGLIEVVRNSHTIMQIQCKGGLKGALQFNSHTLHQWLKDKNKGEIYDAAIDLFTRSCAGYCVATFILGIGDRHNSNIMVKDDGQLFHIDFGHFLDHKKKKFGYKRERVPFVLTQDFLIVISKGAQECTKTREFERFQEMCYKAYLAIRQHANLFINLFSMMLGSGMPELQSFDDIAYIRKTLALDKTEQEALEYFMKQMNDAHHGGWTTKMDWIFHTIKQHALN
In series [3] the target is Serine/threonine-protein kinase mTOR (Homo sapiens, UniProt P42345). Nature of the series: Inhibition of mTOR.
A short description of series [4]: Cytotoxicity against human PC3MM2 cells. It counts as functional, cell-based.
Series [5] has as its system Mus musculus. Nature of the series: Inhibition of AKT-T308 phosphorylation in nude mouse at 25 mg/kg, iv after 8 hrs. Format: functional, organism-based. Details: dose 25 mg/kg.
Series [6] in a line: Solubility at pH 7.4. The conditions noted are these: buffer. Format: physicochemical.
Series [7] is described as follows: Permeability from basolateral to apical side of the human Caco-2 membrane. Format: ADME, cell-based. The conditions noted are these: read-out: permeability. In general terms: Caco-2 monolayers are a common model of the intestinal barrier.
The test system of series [8] is Mus musculus. Nature of the series: Inhibition of AKT-S473 phosphorylation in nude mouse at 25 mg/kg, iv after 8 hrs. It counts as functional, organism-based. Details: dose 25 mg/kg.
In series [9] the target is Phosphatidylinositol 4,5-bisphosphate 3-kinase catalytic subunit gamma isoform (Homo sapiens, UniProt P48736). Nature of the series: Inhibition of PI3gamma.
Chain of Phosphatidylinositol 4,5-bisphosphate 3-kinase catalytic subunit gamma isoform (P48736 whole entry, canonical isoform): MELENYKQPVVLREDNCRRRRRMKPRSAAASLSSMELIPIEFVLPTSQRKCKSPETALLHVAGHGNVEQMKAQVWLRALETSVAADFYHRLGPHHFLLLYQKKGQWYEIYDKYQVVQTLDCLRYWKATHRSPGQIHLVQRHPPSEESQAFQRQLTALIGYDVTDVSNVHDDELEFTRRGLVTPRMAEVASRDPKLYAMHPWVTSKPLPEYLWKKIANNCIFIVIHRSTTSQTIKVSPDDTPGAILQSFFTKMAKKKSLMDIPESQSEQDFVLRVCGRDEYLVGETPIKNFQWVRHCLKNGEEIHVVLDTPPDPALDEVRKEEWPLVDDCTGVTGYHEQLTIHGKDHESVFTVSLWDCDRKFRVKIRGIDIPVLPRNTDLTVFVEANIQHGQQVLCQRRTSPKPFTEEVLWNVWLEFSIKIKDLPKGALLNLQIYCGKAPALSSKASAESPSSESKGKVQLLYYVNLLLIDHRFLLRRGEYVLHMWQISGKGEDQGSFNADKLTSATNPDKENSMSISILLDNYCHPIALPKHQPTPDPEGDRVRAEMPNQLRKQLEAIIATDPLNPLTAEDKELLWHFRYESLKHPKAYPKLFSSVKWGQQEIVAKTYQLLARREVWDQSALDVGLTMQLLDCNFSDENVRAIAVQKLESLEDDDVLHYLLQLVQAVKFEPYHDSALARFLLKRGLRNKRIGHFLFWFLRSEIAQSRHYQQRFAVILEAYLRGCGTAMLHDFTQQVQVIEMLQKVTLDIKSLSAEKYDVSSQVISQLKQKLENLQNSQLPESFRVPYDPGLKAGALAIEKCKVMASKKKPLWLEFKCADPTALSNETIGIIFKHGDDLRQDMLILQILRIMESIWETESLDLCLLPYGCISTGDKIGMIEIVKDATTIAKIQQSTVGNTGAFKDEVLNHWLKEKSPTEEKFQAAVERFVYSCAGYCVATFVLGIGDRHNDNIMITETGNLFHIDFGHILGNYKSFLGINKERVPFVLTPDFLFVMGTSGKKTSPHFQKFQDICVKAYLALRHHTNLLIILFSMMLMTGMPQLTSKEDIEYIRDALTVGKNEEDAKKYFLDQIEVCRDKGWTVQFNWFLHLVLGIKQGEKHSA
The nature of series [10]: Half life in mouse microsome. It counts as ADME. The conditions noted are these: microsomes.
Series [11] concerns Phosphatidylinositol 4,5-bisphosphate 3-kinase catalytic subunit alpha isoform (Homo sapiens), P42336 [E545K]. Nature of the series: Inhibition of PI3Kalpha E545K mutant.
Chain of Phosphatidylinositol 4,5-bisphosphate 3-kinase catalytic subunit alpha isoform (Homo sapiens), P42336 [E545K] (P42336 whole entry E545K, canonical isoform): as the sequence (P42336 whole entry, canonical isoform) above, with E545K counted along it
Series [12] concerns Mus musculus. Nature of the series: Inhibition of AKT-PS6 phosphorylation in nude mouse at 25 mg/kg, iv after 8 hrs. Also on record: dose 25 mg/kg. Format: functional, organism-based.
A short description of series [13]: Half life in human microsome. Format: ADME. The note with it: microsomes.
Series [14] can be described thus: Permeability from apical to basolateral side of the human Caco-2 membrane. Format: ADME, cell-based. The note with it: read-out: permeability.
Series [15] deals with T1, Phosphatidylinositol 4,5-bisphosphate 3-kinase catalytic subunit delta isoform (Homo sapiens, UniProt O00329).
T1 sequence (O00329 whole entry): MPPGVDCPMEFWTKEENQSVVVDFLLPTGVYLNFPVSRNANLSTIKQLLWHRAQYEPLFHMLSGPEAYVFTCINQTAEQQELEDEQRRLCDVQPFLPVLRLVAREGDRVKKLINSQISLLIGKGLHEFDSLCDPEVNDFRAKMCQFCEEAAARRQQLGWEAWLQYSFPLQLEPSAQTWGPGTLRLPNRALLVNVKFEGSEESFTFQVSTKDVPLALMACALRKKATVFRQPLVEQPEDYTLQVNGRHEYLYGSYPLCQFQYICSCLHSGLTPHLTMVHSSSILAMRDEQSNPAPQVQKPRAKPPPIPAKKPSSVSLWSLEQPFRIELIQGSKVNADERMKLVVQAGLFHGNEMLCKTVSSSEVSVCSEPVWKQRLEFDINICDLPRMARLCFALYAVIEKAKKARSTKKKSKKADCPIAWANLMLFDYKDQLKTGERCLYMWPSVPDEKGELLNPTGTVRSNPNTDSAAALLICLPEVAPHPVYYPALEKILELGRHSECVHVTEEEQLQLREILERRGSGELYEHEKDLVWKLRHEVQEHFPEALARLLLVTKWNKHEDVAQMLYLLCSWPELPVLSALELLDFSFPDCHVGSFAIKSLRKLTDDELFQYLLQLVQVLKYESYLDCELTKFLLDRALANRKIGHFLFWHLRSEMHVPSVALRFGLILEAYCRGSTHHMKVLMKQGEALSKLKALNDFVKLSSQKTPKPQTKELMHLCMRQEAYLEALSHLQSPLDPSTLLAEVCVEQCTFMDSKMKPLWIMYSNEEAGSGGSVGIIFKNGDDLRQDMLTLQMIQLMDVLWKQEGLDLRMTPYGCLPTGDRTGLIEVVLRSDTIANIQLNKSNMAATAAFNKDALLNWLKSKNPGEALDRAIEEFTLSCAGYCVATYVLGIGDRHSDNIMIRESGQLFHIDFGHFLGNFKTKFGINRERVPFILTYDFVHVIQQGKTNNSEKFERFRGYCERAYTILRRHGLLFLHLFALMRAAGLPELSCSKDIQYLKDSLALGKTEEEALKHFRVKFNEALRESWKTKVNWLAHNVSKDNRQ
Nature of the series: Inhibition of PI3delta.

The subject of series [16] is MDA-MB-361. Nature of the series: Antitumor activity against human MDA-MB-361 cells xenografted in mouse assessed as reduction in tumor size at 25 mg/kg, iv after 1 to 9 days. Format: functional, organism-based. Also on record: dose 25 mg/kg. (In xenograft studies the graft and the host belong to different species.)
A short description of series [17]: Half life in rat microsome. The conditions noted are these: microsomes. Format: ADME.
Series [18] has as its system Mus musculus. Nature of the series: Inhibition of AKT-P70S6K phosphorylation in nude mouse at 25 mg/kg, iv after 8 hrs. It counts as functional, organism-based. Also on record: dose 25 mg/kg.
Series [19] addresses Phosphatidylinositol 4,5-bisphosphate 3-kinase catalytic subunit beta isoform (Homo sapiens, UniProt P42338). Nature of the series: Inhibition of PI3Kbeta.
Series [20] has as its system Phosphatidylinositol 4,5-bisphosphate 3-kinase catalytic subunit alpha isoform (Homo sapiens), P42336 [H1047R]. Nature of the series: Inhibition of PI3Kalpha H1047R mutant.

Chain of Phosphatidylinositol 4,5-bisphosphate 3-kinase catalytic subunit beta isoform (P42338 whole entry, canonical isoform): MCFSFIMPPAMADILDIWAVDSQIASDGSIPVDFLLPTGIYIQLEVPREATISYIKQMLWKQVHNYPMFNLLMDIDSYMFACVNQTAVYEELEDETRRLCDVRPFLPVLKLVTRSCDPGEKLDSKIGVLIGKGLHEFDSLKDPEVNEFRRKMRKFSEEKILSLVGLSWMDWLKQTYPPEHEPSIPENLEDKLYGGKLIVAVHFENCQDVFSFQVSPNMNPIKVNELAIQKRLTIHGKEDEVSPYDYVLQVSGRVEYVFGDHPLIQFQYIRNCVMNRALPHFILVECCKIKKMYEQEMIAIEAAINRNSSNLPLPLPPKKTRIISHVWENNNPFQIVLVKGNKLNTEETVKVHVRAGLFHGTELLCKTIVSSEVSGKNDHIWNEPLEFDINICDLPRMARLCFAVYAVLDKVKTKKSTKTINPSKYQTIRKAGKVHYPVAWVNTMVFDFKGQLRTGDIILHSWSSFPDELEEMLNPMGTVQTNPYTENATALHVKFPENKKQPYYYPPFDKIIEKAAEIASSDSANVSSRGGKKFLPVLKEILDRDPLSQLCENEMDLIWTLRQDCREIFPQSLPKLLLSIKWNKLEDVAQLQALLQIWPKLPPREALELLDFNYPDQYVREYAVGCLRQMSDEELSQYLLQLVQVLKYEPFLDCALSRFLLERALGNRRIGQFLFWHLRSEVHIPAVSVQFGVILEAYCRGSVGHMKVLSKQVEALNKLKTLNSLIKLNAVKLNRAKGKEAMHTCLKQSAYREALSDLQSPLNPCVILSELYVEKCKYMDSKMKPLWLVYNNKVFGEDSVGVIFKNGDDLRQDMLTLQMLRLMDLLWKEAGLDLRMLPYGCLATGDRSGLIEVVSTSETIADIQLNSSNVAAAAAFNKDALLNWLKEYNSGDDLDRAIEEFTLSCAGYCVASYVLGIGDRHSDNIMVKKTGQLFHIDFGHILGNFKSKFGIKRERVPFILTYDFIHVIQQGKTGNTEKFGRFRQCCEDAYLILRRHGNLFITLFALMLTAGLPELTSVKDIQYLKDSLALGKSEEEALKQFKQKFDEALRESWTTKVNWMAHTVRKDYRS
Chain of Phosphatidylinositol 4,5-bisphosphate 3-kinase catalytic subunit alpha isoform (Homo sapiens), P42336 [H1047R] (P42336 whole entry H1047R, canonical isoform): as the sequence (P42336 whole entry, canonical isoform) above, with H1047R counted along it

On to `COc1ccc2[nH]c(-c3c(C)nn(C)c3C)c(/C=C3/Oc4ccc(NC(=O)Nc5ccc(C(=O)N6CCN(C)CC6)cc5)cc4C3=O)c2c1`, for which the IC50 (in general, the concentration that inhibits the measured activity by half) came out at 8 nM in [1], 0.2 nM in series [2], 3.8 nM in series [3] and 131 nM in series [4].

Take `CNC(=O)Nc1ccc2c(c1)C(=O)/C(=C\c1c(-c3c(C)nn(C)c3C)[nH]c3ccc(OC)cc13)O2`: the IC50 stood at 36 nM in series [1], 0.4 nM in series [2], 1.3 nM in series [3] and 130 nM in series [4].

For `COc1ccc2[nH]cc(/C=C3/Oc4ccc(NC(=O)Nc5ccc(C(=O)N6CCN(C)CC6)cc5)cc4C3=O)c2c1`, the concentration for half-maximal inhibition (IC50) in [1] was above 1000 nM; in series [2], 0.9 nM; in series [3] it was above 4000 nM; in series [4] it was above 1000 nM.

Turning to `COc1ccc2[nH]c(-c3c(C)nn(C)c3C)c(/C=C3/Oc4ccc(NC(=O)Nc5cccnc5)cc4C3=O)c2c1`, the IC50 in series [1] was 76 nM; in series [2], 0.5 nM; in series [3] it was 5.2 nM; in [4], above 10000 nM.

Consider `COc1cc(F)c2[nH]c(-c3c(C)nn(C)c3C)c(/C=C3/Oc4ccc(NC(=O)Nc5cccnc5)cc4C3=O)c2c1`, for which the IC50 in series [1] is 39 nM; in series [2], 1 nM; in [3], 1.5 nM; in [4] it was above 1000 nM.

On to `COc1cc(F)c2[nH]c(-c3c(C)nn(C)c3C)c(/C=C3/Oc4ccc(NC(=O)Nc5ccc(C(=O)N6CCOCC6)cc5)cc4C3=O)c2c1`, for which the concentration for half-maximal inhibition (IC50) worked out at 6 nM in series [1], 0.5 nM in series [2], 2.5 nM in series [3] and 57 nM in [4].

In the case of `COc1ccc2[nH]c(-c3c(C)nn(C)c3C)c(/C=C3/Oc4ccc(NC(=O)Nc5ccc(C(=O)N(C)CCN(C)C)cc5)cc4C3=O)c2c1`, the IC50 is below 3 nM in [1], 0.3 nM in [2], 1.1 nM in series [3] and 23 nM in series [4].

For `CNC(=O)Nc1ccc2c(c1)C(=O)/C(=C\c1c(-c3c(C)nn(C)c3C)[nH]c3c(F)cc(OC)cc13)O2`, the IC50 turned out to be 20 nM in series [1], 0.4 nM in series [2], 2.4 nM in [3] and 62 nM in series [4].

Turning to `COc1ccc2[nH]c(-c3c(C)nn(C)c3C)c(/C=C3/Oc4ccc(NC(=O)Nc5ccc(C(=O)N6CCOCC6)cc5)cc4C3=O)c2c1`, the 50% inhibitory concentration (IC50) in series [1] was determined as 6 nM; in series [2] it was 0.2 nM; in series [3], 4.2 nM; in series [4] it was 94 nM.

As to `COc1cc(F)c2[nH]c(-c3c(C)nn(C)c3C)c(/C=C3/Oc4ccc(NC(=O)Nc5ccc(C(=O)N(C)CCN(C)C)cc5)cc4C3=O)c2c1`, the inhibition result in series [5], in series [8], in series [12] and in series [18] was “Active” in each case. The solubility (usually how much of the substance goes into solution per volume) in [6] is 1 µg/mL (≈ 1.47 µM). The Papp B→A in [7] was found to be 0.3 ×10⁻⁶ cm/s. The half-maximal inhibitory concentration (IC50) in [1] was below 3 nM; in series [9], 2.4 nM; in series [11], 0.3 nM; in [15], 0.6 nM; in [2], 0.2 nM; in series [3], 0.3 nM. Moreover, the values for the 50% inhibitory concentration (IC50) in series [19] and in series [4] were 0.7 nM and 10 nM, respectively. Moreover, the half-life in [10], in series [13] and in [17] was above 30 min throughout. Also, in series [14], the Papp A→B stood at 0.3 ×10⁻⁶ cm/s. Further, the outcome in series [16] was Active. The INH in series [20] was found to be 0.5 nM.
